Values after ≈ are worked out from the molar mass of the structure shown. Read-outs that look alike come from different tables or passages of the source.
Legend:
[1] = system: M. abscessus subsp. massiliense M111; assay: microbe, parasite or virus in culture; format: cell-based, Mycobacterium abscessus; conditions: Mycobacteroides abscessus, 72 h
[2] = system: M. abscessus Bamboo; assay: MIC and MBC determination in culture tubes (planktonic); format: cell-based, Mycobacterium abscessus; conditions: Mycobacteroides abscessus
[3] = Stability in microsomes (intrinsic clearance); format: in vitro ADME, human
Description: Intrinsic clearance (CLi) values were determined in mouse and human liver microsomes. Test compounds (final concentration 0.5 μM) were incubated at 37°C for 30 min in 50 mM potassium phosphate buffer (pH 7.4) containing 0.5 mg microsomal protein/ml. The reaction was started by addition of cofactor NADPH. At 10 different time points (from zero to 30 min) an aliquot (90 μl) was taken, quenched with acetonitrile-methanol containing an appropriate internal standard, centrifuged and analyzed by LC-MS/MS. The intrinsic clearance (CLi) was determined using the following equation: CLi=k*(ml of incubation/mg microsomal protein)*(mg microsomal protein/g liver)
Where k is the turn-over rate constant of the ln (% remaining compound) versus time regression and mg microsomal protein/g liver is 52.5 for both mouse and human.

[4] = system: M. abscessus subsp. abscessus M9; assay: microbe, parasite or virus in culture; format: cell-based, Mycobacterium abscessus; conditions: Mycobacteroides abscessus, 72 h
[5] = system: M. abscessus subsp. abscessus M199; assay: microbe, parasite or virus in culture; format: cell-based, Mycobacterium abscessus; conditions: Mycobacteroides abscessus, 72 h
[6] = system: M. abscessus Bamboo RM2 (GyrA D91N); assay: microbe, parasite or virus in culture; format: cell-based, Mycobacterium abscessus
[7] = system: M. abscessus Bamboo biofilms; assay: Biofilm growth inhibition assay (biofilm MIC and MBC); format: cell-based, Mycobacterium abscessus
Description: The biofilm growth inhibition assay was performed as previously described ([52]). Innovotech MBEC 96-well Biofilm Assay Plates (Innovotech 19111, Edmonton, AB, Alberta, Canada) were used, and the supplier’s manual was followed with minor modifications. Midlog phase M. abscessus Bamboo precultures (OD600 = 0.4–0.6) were spun down at 3,200 × g for 10 min at 25°C and washed with 7H9 medium without Tween 80 (7H9nt). Bacteria were resuspended into 25 ml 7H9nt to an OD600 = 0.0125 (1.0 × 10^6 CFU/ml). 150 μl of bacteria suspension was dispensed into each well of MBEC multititer plates and the polystyrene protrusions (pegs) of the MBEC lid were inserted into the culture-containing wells for 24 h at 37°C on an orbital shaker at 110 rpm to allow attachment of the bacteria to the pegs and initiation of biofilm growth. The lids with the pegs (now with 1-day-old biofilms) were transferred to new MBEC multititer plates containing 150 μl of fresh 7H9nt medium per well without bacteria (0 h time point). After that, the lids with biofilm-laden pegs were transferred once a day to a new multititer plate containing fresh 7H9nt medium. To measure growth of the biofilm formed on the peg, the pegs were washed in 200 μl of 7H9nt medium before they were aseptically removed and placed in 1.7 ml microcentrifuge tubes (VWR 87003-294, Rador, PA, United States) containing 500 μl PBS/Tween 80. The microcentrifuge tubes were vigorously vortexed at 2,000 rpm for 90 s at 25°C to detach the bacteria from the pegs before samples were serially diluted and plated for the determination of CFU/peg. […] The average drug-free biofilm growth was calculated by subtracting the average 24 h CFU/peg value from the average 72 h CFU/peg value for the untreated control pegs. The biofilm MIC was defined as the lowest drug concentration that reduced the CFU/peg by 90% relative to the average drug-free biofilm growth.

[8] = Mouse oral pharmacokinetics; format: in vivo; conditions: for concentration at 24 h / AUC(0-t) / half-life: female; for concentration at 24 h: CD-1, mouse, below limit of quantitation (LOQ), read-out: plasma concentration at the 24h time point; for AUC(0-t) / half-life: mouse
Description: All animal studies were ethically reviewed and carried out in accordance with the Institutional Animal Care and Use Committee of Hackensack Meridian Health. Six-week-old CD-1 female mice (20–25 g) were used in pharmacokinetic studies. Groups of 3 mice received a single oral dose of EC/11716 formulated in 0.4% methylcellulose, at either 50, 200 or 400 mg/kg. Aliquots of 20 μl of blood were collected from the lateral tail vein by serial puncture from each mouse at 0.5, 1, 3, 5, 7 and 24h post dose in K2EDTA tubes. Plasma was recovered after centrifugation and stored at −80°C until analyzed by high pressure liquid chromatography coupled to tandem mass spectrometry.
Neat 1 mg/ml DMSO stocks of EC/11716 were serial diluted in 50/50 Acetonitrile water to create standard curves and quality control spiking solutions. Standards and QCs were created by adding 10μls of spiking solutions to 90μls of drug free plasma (CD-1 K2EDTA Mouse, Bioreclamation IVT). 10μls of control, standard, QC, or study sample were added to 100 μl of Acetonitrile/Methanol 50/50 protein precipitation solvent containing 10 ng/ml of the internal standard Verapamil (Sigma-Aldrich). Extracts were vortexed for 5 min and centrifuged at 4000 RPM for 5 min. 75 μl of supernatant was transferred for HPLC-MS/MS analysis and diluted with 75 μl of Milli-Q deionized water.
LC-MS/MS analysis was performed on a Sciex Applied Biosystems Qtrap 6500+ triple-quadrupole mass spectrometer coupled to a Shimadzu Nexera X2 UHPLC system to quantify each drug in plasma. Chromatography was performed on a Phenomenex Luna Omega column (2.1 × 100 mm; particle size, 3 μm) using a reverse phase gradient. Milli-Q deionized water with 0.1% formic acid was used for the aqueous mobile phase and 0.1% formic acid in acetonitrile for the organic mobile phase. Multiple-reaction monitoring of parent/daughter transitions in electrospray positive-ionization mode was used to quantify the analytes. The following MRM transitions were used for EC/11716 (458.09/203.10) and Verapamil (455.40/165.00). Sample analysis was accepted if the concentrations of the quality control samples were within 20% of the nominal concentration. Data processing was performed using Analyst software (version 1.6.2; Applied Biosystems Sciex).

[9] = system: M. abscessus subsp. bolletii CCUG 50184T; assay: microbe, parasite or virus in culture; format: cell-based, Mycobacterium abscessus; conditions: Mycobacteroides abscessus, 72 h
[10] = system: M. tuberculosis H37Rv ATCC 27294; assay: microbe, parasite or virus in culture; format: cell-based; conditions: Mycobacterium tuberculosis, 168 h
[11] = mice, oral 400 mg/kg, from PK profiles and potency data

COc1cnc2ccc(=O)n(CCN3CCC(NCc4cnc(CO)c(Cl)c4)CC3)c2c1 [EC/11716]
MIC [1]: 4.9 µM (≈ 2.24 µg/mL)
MBC ([2]; 0 h, 10-fold reduction in CFU/ml vs day 0): 3.1 µM (≈ 1.42 µg/mL)
MIC ([2]; 48 h, day 2): 1.5 µM (≈ 0.687 µg/mL)
Human In vitro CLint ([3]; human hepatic microsomes, free base form): < 0.3 ml/min/g tissue
Human microsomal clearance ([3]; human microsomes): < 0.3 ml/min/g protein
MIC [4]: 2.9 µM (≈ 1.33 µg/mL)
MIC [5]: 3.8 µM (≈ 1.74 µg/mL)
MIC [6]: >100 µM
MIC ([6]; Mycobacteroides abscessus): > 100 µM
increase of biofilm MBC relative to planktonic MBC ([7]; M. abscessus Bamboo biofilm vs planktonic bacteria): 2 fold
MBC ([7]; Mycobacteroides abscessus, Biofilm, M. abscessus Bamboo, 10-fold reduction of CFU/peg vs 24 h): 6.3 µM (≈ 2.89 µg/mL)
MIC ([7]; Mycobacteroides abscessus, Biofilm, M. abscessus Bamboo, 90% reduction of CFU/peg relative to drug-free biofilm growth, 48 h): 0.78 µM (≈ 0.357 µg/mL)
DNAUC[0-24]_50 mg/kg ([8]; CD-1 mice, oral 50 mg/kg, dose-normalized AUC, mean (SD)): 58 (16) ng*h/ml per mg/kg
Tmax_50 mg/kg ([8]; CD-1 mice, oral 50 mg/kg, range of values): 30 to 60 min
DNAUC[0-24]_200 mg/kg ([8]; CD-1 mice, oral 200 mg/kg, dose-normalized AUC, mean (SD)): 167 (24) ng*h/ml per mg/kg
Tmax_200 mg/kg ([8]; CD-1 mice, oral 200 mg/kg, range of values): 0.5−1.0 h
DNAUC[0-24]_400 mg/kg ([8]; CD-1 mice, oral 400 mg/kg, dose-normalized AUC, mean (SD)): 202 (8) ng*h/ml per mg/kg
Tmax_400 mg/kg ([8]; CD-1 mice, oral 400 mg/kg, range of values): 30 to 60 min
Cmax_50 mg/kg ([8]; CD-1 mice, single oral dose 50 mg/kg, plasma, mean (SD)): 632 (430) ng/ml
Cmax_200 mg/kg ([8]; CD-1 mice, single oral dose 200 mg/kg, plasma, mean (SD)): 7,177 (618) ng/ml
Cmax_400 mg/kg ([8]; CD-1 mice, single oral dose 400 mg/kg, plasma, mean (SD)): 16,767 (8,281) ng/ml
concentration at 24 h ([8]; plasma, mice, oral 50 mg/kg): < 20 ng/mL
concentration at 24 h ([8]; plasma, mice, oral 200 mg/kg): < 20 ng/mL
AUC(0-t) ([8]; plasma, CD-1 mice, oral 50 mg/kg, mean (SD), read-out: AUC[0-24]_50 mg/kg): 2900 ng·h/mL
half-life ([8]; plasma, CD-1 mice, oral 50 mg/kg, mean (SD), read-out: Elimination T1/2 _50 mg/kg (converted)): 162 min
AUC(0-t) ([8]; plasma, CD-1 mice, oral 200 mg/kg, mean (SD), read-out: AUC[0-24]_200 mg/kg): 33400 ng·h/mL
half-life ([8]; plasma, CD-1 mice, oral 200 mg/kg, mean (SD), read-out: Elimination T1/2 _200 mg/kg (converted)): 102 min
AUC(0-t) ([8]; plasma, CD-1 mice, oral 400 mg/kg, mean (SD), read-out: AUC[0-24]_400 mg/kg): 80700 ng·h/mL
half-life ([8]; plasma, CD-1 mice, oral 400 mg/kg, mean (SD), read-out: Elimination T1/2 _400 mg/kg (converted)): 216 min
time above MIC of M. abscessus K21 planktonic cultures [8, 11]: 67%
time above MIC of M. abscessus biofilms [8, 11]: greater than 70%
MIC [9]: 4.1 µM (≈ 1.88 µg/mL)
MIC [10]: 0.38 µM (≈ 0.174 µg/mL)
